Data reported in ChEMBL document CHEMBL3393036, “Tetra-substituted pyridinylimidazoles as dual inhibitors of p38α mitogen-activated protein kinase and c-Jun N-terminal kinase 3 for potential treatment of neurodegenerative diseases” (J Med Chem, 2015).

What was measured:
[1] = target: Vascular endothelial growth factor receptor 2 (Homo sapiens) (UniProt P35968); assay: Inhibition of KDR (unknown origin) at 5.5 uM by Caliper Mobility Shift Assay
[2] = target: T1, TGF-beta-activated kinase 1 and MAP3K7-binding protein 1 (Homo sapiens) (UniProt Q15750); assay: Inhibition of MAP3K7-TAB1 (unknown origin) at 5.5 uM by Caliper Mobility Shift Assay
T1 sequence (whole entry): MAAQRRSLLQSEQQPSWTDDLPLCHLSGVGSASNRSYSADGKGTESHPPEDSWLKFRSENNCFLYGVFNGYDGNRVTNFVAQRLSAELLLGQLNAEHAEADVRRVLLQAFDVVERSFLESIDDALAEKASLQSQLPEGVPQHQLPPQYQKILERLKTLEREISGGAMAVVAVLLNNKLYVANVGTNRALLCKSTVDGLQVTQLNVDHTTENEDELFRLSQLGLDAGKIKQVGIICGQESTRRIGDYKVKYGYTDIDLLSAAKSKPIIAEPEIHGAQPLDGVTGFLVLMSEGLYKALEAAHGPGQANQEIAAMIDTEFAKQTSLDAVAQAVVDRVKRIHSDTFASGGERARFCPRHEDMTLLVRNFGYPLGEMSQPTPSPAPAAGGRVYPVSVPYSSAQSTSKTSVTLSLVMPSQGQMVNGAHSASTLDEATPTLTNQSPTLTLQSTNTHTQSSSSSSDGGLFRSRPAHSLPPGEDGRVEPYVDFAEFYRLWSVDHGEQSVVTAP

[3] = target: Tyrosine-protein kinase CSK (Homo sapiens) (UniProt P41240); assay: Inhibition of CSK (unknown origin) at 5.5 uM by Caliper Mobility Shift Assay
[4] = target: Cyclin-dependent kinase 4/cyclin D1 (Homo sapiens) (UniProt P11802+P24385); assay: Inhibition of CDK4D1 (unknown origin) at 5.5 uM by Caliper Mobility Shift Assay; format: protein-complex assay
[5] = target: Cyclin-dependent kinase 2 (Homo sapiens) (UniProt P24941); assay: Inhibition of CDK2 (unknown origin) at 5.5 uM by Caliper Mobility Shift Assay
[6] = target: Calcium/calmodulin-dependent protein kinase type II subunit beta (Homo sapiens) (UniProt Q13554); assay: Inhibition of CAMK2 (unknown origin) at 5.5 uM by Caliper Mobility Shift Assay
[7] = target: Insulin receptor (Homo sapiens) (UniProt P06213); assay: Inhibition of INSR (unknown origin) at 5.5 uM by Caliper Mobility Shift Assay
[8] = target: T2, Tyrosine-protein kinase ZAP-70 (Homo sapiens) (UniProt P43403); assay: Inhibition of ZAP70 (unknown origin) at 5.5 uM by Caliper Mobility Shift Assay
T2 sequence (whole entry): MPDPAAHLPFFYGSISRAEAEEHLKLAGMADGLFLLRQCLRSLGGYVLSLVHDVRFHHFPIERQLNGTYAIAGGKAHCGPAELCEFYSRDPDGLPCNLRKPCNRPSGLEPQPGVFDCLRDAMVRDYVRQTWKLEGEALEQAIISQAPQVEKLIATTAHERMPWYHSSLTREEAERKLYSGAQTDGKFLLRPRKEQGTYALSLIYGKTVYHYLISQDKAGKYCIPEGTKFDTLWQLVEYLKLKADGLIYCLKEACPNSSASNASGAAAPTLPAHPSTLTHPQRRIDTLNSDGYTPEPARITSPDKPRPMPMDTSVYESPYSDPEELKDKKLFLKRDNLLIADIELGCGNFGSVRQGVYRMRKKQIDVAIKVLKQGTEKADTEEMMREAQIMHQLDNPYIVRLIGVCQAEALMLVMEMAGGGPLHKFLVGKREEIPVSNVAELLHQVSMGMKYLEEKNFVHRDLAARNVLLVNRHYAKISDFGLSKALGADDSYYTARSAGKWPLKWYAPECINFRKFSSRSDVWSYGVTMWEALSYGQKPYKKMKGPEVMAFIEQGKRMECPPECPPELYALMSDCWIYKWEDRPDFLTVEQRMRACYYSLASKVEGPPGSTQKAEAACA

[9] = target: Serine/threonine-protein kinase PAK 2 (Homo sapiens) (UniProt Q13177); assay: Inhibition of PAK2 (unknown origin) at 5.5 uM by Caliper Mobility Shift Assay
[10] = target: RAC-alpha serine/threonine-protein kinase (Homo sapiens) (UniProt P31749); assay: Inhibition of AKT1 (PKBa) (unknown origin) at 5.5 uM by Caliper Mobility Shift Assay
[11] = target: Rho-associated protein kinase 2 (Homo sapiens) (UniProt O75116); assay: Inhibition of ROCK2 (unknown origin) at 5.5 uM by Caliper Mobility Shift Assay
[12] = target: Serine/threonine-protein kinase WNK1 (Homo sapiens) (UniProt Q9H4A3); assay: Inhibition of WNK1 (unknown origin) at 5.5 uM by Caliper Mobility Shift Assay
[13] = target: ALK tyrosine kinase receptor (Homo sapiens) (UniProt Q9UM73); assay: Inhibition of ALK (unknown origin) at 5.5 uM by Caliper Mobility Shift Assay
[14] = target: Mitogen-activated protein kinase 9 (Homo sapiens) (UniProt P45984); assay: Inhibition of JNK2 (unknown origin) at 5.5 uM by Caliper Mobility Shift Assay
[15] = target: Platelet-derived growth factor receptor alpha (Homo sapiens) (UniProt P16234); assay: Inhibition of PDGFRa (unknown origin) at 5.5 uM by Caliper Mobility Shift Assay
[16] = target: Hepatocyte growth factor receptor (Homo sapiens) (UniProt P08581); assay: Inhibition of MET (unknown origin) at 5.5 uM by Caliper Mobility Shift Assay
[17] = target: Glycogen synthase kinase-3 beta (Homo sapiens) (UniProt P49841); assay: Inhibition of GSK3beta (unknown origin) at 5.5 uM by Caliper Mobility Shift Assay
[18] = target: MAP kinase-activated protein kinase 2 (Homo sapiens) (UniProt P49137); assay: Inhibition of MK2 (unknown origin) at 5.5 uM by Caliper Mobility Shift Assay
[19] = target: T3, Serine/threonine-protein kinase 17B (Homo sapiens) (UniProt O94768); assay: Inhibition of STK17B (unknown origin) at 5.5 uM by Caliper Mobility Shift Assay
T3 sequence (whole entry): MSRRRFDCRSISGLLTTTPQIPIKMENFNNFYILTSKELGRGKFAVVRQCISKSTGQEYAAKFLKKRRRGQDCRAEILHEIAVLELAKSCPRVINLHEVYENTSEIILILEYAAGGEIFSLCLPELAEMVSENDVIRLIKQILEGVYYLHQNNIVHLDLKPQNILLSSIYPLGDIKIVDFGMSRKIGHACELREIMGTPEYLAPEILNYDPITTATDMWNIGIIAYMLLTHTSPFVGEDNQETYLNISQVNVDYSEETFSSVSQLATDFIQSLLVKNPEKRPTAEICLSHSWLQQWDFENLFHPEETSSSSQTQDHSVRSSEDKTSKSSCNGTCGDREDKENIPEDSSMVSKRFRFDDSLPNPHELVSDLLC

[20] = target: Tyrosine-protein kinase SYK (Homo sapiens) (UniProt P43405); assay: Inhibition of SYK (unknown origin) at 5.5 uM by Caliper Mobility Shift Assay

Measured: inhibition

Sequence of Mitogen-activated protein kinase 9 (Homo sapiens) (P45984 whole entry, looked up): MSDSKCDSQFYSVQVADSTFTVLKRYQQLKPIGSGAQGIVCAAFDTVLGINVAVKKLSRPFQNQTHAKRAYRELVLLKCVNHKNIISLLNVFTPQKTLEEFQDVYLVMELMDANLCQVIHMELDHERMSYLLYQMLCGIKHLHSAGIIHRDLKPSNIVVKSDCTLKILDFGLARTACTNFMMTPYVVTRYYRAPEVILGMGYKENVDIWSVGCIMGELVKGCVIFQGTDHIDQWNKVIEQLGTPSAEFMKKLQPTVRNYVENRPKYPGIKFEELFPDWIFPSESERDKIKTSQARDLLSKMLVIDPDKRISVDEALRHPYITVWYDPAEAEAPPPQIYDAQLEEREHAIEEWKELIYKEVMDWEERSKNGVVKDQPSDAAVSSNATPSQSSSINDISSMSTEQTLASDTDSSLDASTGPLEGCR
Sequence of Serine/threonine-protein kinase WNK1 (Homo sapiens) (Q9H4A3 whole entry, looked up): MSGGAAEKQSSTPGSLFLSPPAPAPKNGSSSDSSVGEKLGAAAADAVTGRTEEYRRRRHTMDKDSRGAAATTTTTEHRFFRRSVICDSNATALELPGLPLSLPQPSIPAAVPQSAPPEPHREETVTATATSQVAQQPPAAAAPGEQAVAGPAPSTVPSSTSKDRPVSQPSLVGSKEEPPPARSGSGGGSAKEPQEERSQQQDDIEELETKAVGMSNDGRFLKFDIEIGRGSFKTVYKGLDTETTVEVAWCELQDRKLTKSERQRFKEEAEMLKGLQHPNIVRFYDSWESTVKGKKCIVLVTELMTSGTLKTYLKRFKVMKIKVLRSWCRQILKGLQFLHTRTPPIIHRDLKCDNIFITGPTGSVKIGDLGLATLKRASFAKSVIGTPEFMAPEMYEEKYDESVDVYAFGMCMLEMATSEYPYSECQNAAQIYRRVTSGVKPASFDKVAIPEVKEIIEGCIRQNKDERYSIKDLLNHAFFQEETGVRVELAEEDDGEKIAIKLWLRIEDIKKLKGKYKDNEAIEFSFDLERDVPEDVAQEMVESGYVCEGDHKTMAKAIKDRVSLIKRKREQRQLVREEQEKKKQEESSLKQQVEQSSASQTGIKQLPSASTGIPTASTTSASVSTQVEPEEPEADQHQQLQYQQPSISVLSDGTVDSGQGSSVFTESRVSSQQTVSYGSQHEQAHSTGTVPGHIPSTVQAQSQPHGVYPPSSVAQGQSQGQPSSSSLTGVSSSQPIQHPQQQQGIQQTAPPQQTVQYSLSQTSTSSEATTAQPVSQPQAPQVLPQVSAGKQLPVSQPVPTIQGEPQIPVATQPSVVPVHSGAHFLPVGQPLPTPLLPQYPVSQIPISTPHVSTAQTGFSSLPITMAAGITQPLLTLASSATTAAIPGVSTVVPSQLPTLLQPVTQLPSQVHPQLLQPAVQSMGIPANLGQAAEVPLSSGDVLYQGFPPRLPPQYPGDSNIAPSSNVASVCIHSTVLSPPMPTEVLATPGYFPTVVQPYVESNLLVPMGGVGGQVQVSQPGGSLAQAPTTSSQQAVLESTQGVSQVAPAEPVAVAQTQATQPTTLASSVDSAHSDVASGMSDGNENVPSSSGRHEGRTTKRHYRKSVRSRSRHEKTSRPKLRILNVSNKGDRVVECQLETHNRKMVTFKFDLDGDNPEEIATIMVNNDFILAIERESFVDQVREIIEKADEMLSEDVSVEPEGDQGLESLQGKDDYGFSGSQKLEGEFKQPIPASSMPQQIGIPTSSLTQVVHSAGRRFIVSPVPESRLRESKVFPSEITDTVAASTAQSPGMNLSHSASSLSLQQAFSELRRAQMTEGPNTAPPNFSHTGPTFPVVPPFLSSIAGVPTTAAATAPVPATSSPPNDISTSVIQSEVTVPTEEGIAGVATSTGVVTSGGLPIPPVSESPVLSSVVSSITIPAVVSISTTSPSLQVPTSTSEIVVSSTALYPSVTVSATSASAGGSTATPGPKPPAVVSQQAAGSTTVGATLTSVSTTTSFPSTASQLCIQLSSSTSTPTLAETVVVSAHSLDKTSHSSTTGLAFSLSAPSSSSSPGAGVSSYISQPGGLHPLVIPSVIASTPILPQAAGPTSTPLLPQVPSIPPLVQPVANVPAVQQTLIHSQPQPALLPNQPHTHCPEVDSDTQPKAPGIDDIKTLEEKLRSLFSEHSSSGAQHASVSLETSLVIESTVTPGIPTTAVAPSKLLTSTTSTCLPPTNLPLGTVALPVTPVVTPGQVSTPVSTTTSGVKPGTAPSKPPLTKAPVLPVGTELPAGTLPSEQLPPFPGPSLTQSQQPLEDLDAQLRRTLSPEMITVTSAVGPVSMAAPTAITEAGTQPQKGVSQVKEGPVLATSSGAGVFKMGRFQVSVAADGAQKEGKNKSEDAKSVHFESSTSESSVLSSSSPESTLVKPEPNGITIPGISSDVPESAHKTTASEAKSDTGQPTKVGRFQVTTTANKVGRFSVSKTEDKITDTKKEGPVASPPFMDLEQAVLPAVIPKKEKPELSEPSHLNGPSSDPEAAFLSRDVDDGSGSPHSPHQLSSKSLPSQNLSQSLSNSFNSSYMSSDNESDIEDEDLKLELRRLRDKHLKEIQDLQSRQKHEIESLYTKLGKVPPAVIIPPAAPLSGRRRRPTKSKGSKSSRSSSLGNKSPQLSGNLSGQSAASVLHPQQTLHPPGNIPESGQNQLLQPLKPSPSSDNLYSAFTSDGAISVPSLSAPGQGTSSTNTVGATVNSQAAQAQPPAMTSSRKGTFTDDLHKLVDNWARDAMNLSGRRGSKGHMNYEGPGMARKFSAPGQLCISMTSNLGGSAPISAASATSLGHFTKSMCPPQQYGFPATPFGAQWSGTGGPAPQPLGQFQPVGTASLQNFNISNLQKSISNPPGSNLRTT
Sequence of Glycogen synthase kinase-3 beta (Homo sapiens) (P49841 whole entry, looked up): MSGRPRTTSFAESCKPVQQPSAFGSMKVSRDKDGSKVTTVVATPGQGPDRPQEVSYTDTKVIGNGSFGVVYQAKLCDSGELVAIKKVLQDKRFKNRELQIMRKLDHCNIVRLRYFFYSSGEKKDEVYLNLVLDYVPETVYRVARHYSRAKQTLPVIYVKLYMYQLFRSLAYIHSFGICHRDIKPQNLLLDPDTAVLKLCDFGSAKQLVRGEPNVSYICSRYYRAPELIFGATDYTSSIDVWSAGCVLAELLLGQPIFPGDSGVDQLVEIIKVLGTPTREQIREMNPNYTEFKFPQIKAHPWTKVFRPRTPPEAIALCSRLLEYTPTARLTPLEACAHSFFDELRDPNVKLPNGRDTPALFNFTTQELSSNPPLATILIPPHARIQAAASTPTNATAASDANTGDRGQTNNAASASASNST
Sequence of Vascular endothelial growth factor receptor 2 (Homo sapiens) (P35968 whole entry): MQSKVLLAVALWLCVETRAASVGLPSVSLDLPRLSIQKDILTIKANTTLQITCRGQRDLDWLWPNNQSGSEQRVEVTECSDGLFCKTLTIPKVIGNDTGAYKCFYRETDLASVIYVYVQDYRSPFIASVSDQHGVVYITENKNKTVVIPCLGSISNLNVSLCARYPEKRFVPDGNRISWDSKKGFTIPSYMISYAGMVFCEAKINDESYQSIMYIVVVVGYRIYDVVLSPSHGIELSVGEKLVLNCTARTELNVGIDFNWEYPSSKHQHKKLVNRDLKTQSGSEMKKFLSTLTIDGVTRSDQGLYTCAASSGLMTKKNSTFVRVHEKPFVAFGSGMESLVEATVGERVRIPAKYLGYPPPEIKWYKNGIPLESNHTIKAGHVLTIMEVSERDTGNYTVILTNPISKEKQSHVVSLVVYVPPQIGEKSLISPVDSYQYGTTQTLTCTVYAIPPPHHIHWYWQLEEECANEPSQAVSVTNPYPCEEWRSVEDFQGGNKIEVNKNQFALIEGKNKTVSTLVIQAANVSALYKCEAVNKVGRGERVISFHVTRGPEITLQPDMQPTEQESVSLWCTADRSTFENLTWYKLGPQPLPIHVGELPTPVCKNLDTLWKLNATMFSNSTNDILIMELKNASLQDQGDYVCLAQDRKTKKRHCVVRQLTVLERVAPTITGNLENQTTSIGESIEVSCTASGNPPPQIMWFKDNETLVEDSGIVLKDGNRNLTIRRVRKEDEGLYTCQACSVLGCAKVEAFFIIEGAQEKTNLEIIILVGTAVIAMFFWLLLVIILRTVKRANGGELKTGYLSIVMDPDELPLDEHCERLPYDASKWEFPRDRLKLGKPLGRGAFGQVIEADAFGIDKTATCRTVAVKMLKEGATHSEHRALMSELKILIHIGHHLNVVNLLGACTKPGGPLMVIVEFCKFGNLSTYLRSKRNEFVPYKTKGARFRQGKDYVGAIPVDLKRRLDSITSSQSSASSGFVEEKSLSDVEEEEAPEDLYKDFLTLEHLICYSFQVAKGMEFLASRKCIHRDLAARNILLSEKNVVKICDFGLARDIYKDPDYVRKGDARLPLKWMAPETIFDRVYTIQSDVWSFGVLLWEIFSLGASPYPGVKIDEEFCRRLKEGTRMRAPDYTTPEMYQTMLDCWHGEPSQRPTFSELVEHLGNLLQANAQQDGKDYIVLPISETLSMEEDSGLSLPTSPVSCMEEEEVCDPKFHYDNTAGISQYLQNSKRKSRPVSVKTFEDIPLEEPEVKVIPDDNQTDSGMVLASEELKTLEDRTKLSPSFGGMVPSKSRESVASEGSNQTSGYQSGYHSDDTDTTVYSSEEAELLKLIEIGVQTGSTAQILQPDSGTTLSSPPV
Sequence of RAC-alpha serine/threonine-protein kinase (Homo sapiens) (P31749 whole entry): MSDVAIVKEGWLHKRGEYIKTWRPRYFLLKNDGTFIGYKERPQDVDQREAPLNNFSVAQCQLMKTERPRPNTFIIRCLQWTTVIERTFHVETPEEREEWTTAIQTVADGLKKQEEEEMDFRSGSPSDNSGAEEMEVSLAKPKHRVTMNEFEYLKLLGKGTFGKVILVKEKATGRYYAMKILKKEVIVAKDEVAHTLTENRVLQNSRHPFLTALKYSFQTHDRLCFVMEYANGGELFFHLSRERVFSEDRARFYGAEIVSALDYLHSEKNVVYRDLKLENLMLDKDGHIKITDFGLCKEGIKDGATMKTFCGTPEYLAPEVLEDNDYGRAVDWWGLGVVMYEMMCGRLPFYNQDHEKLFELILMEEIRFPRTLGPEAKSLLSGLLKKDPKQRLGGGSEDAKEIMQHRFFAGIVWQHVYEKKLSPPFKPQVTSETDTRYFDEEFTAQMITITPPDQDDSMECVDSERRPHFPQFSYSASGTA

CC(=O)Nc1cc(-c2c(-c3ccc(F)cc3)nc(S/C=C\C(=O)O)n2C2CCCCC2)ccn1
< 50%: all assays above

CC(=O)Nc1cc(-c2c(-c3ccc(F)cc3)nc(Sc3cccc(I)n3)n2C2CCCCC2)ccn1
< 50%: all assays above

CC(=O)Nc1cc(-c2c(-c3ccc(F)cc3)nc(S/C=C\C(=O)O)n2CC2CCCO2)ccn1 (racemic)
< 50%: all assays above

CC(=O)Nc1cc(-c2c(-c3ccc(F)cc3)nc(S/C=C\C(=O)O)n2C2CC2)ccn1
< 50%: all assays above

COC(Cn1c(SC2CCC(C(=O)O)CC2O)nc(-c2ccc(F)cc2)c1-c1ccnc(NC(C)=O)c1)OC (stereo not given)
< 50%: all assays above
